Patent publication US12559495B2 (Agency for Science, Technology and Research, priority 2013, dated 2026)
pIC50: −log10 of the molar value.

What follows are compounds tested on HEK293-STF3A cells (assay: STF3A assay (luciferase reporter)). Settings: Homo sapiens, 24 h, 1 day of treatment.
Format: cell-based
Protocol: HEK293-STF cell line was modified from Human embryonic kidney cell line HEK293 transfected with the STF reporter. HEK293-STF3A cell line was further modified from HEK293-STF cell line to express Wnt3A. This cell line was used to identify compounds that regulate either early or late signalling components of the Wnt pathway. L-Wnt3A (ATCC, #CRL-2647) cell line was used for providing Wnt3A conditioned media. The three cell lines were grown in DMEM (Dulbecco's Modified Eagle Medium) with 10% FBS (fetal bovine serum) incubated in 37° C. with 5% CO2. 2×10^4 HEK293-STF3A cells in 75 μl culture media were seeded in each well of white 96 well plates (Greiner #655098) and incubated overnight at 37° C. 25 μl serially diluted compound was added to the cells to give final concentration of 50 μM to 1.5 nM. After 1 day of treatment, 100 μl of Steady-Glo® Luciferase Assay reagent (#E2520, Promega) was added to each well and incubated for 10 minutes at room temperature. Luminescence was measured using Tecan Safire2® plate reader.

SMILES | pIC50
Cn1c(=O)c2c(ncn2CC(=O)Nc2ccc(-c3ccc(OC(F)(F)F)cc3)cc2)n(C)c1=O [Compound 31, 2-(1,3-dimethyl-2,6-dioxo-2,3-dihydro-1H-purin-7(6H)-yl)-N-(4′-(trifluoromethoxy)biphenyl-4-yl)acetamide] | > 5.30
Cn1c(=O)c2c(nc(-c3ccccc3)n2CC(=O)Nc2ccc(-c3ccsc3)cc2)n(C)c1=O [Compound 69, 2-(1,3-dimethyl-2,6-dioxo-8-phenyl-2,3-dihydro-1H-purin-7(6H)-yl)-N-(4-(thiophen-3-yl)phenyl)acetamide] | > 7.00
Cn1c(=O)c2c(ncn2CC(=O)Nc2cc(-c3ccccc3)cs2)n(C)c1=O [Compound 3, 2-(1,3-dimethyl-2,6-dioxo-2,3-dihydro-1H-purin-7(6H)-yl)-N-(4-phenylthiophen-2-yl)acetamide] | > 6.00
Cn1c(=O)c2c(ncn2CCC(=O)Nc2ccc(-c3ccsc3)cc2)n(C)c1=O [Compound 87, 3-(1,3-dimethyl-2,6-dioxo-1,2,3,6-tetrahydro-7H-purin-7-yl)-N-(4-(thiophen-3-yl)phenyl)propanamide] | > 7.00
Cn1c(=O)c2c(ncn2CC(=O)Nc2ccc(-c3cccnn3)cc2)n(C)c1=O [Compound 6, 2-(1,3-dimethyl-2,6-dioxo-2,3-dihydro-1H-purin-7(6H)-yl)-N-(4-(pyridazin-3-yl)phenyl)acetamide] | > 6.00
Cc1nc2c(c(=O)n(C)c(=O)n2C)n1[C@@H](C)C(=O)Nc1ccc(-c2nccs2)cc1 [Compound 67, (S)—N-(4-(thiazol-2-yl)phenyl)-2-(1,3,8-trimethyl-2,6-dioxo-2,3-dihydro-1H-purin-7(6H)-yl)propanamide] | > 6.00
CC(C(=O)Nc1ccc(-c2ccccc2)nn1)n1cnc2c1c(=O)n(C)c(=O)n2C (stereo not shown) [Compound 77, 2-(1,3-dimethyl-2,6-dioxo-2,3-dihydro-1H-purin-7(6H)-yl)-N-(6-phenylpyridazin-3-yl)propanamide] | > 7.00
Cn1c(=O)c2c(ncn2CC(=O)Nc2ccc(-c3cnco3)cc2)n(C)c1=O [Compound 40, 2-(1,3-dimethyl-2,6-dioxo-2,3-dihydro-1H-purin-7(6H)-yl)-N-(4-(oxazol-5-yl)phenyl)acetamide] | > 6.00
Cc1ccc(-c2ccc(NC(=O)Cn3cnc4c3c(=O)n(C)c(=O)n4C)cc2)cc1 [Compound 30, 2-(1,3-dimethyl-2,6-dioxo-2,3-dihydro-1H-purin-7(6H)-yl)-N-(4′-methylbiphenyl-4-yl)acetamide] | > 7.00
COc1ccccc1-c1ccc(NC(=O)Cn2cnc3c2c(=O)n(C)c(=O)n3C)cc1 [Compound 27, 2-(1,3-dimethyl-2,6-dioxo-2,3-dihydro-1H-purin-7(6H)-yl)-N-(2′-methoxybiphenyl-4-yl)acetamide] | < 5.00
Cn1c(=O)c2c(ncn2CC(=O)Nc2ccc(-c3ccsc3)cc2)n(C)c1=O [Compound 18, 2-(1,3-dimethyl-2,6-dioxo-2,3-dihydro-1H-purin-7(6H)-yl)-N-(4-(thiophen-3-yl)phenyl)acetamide] | > 7.00
Cn1c(=O)c2c(ncn2CC(=O)Nc2ccc(N3CCN(Cc4cccc(F)c4)CC3)cn2)n(C)c1=O [Compound 57, 2-(1,3-dimethyl-2,6-dioxo-2,3-dihydro-1H-purin-7(6H)-yl)-N-(5-(4-(3-fluorobenzyl)piperazin-1-yl)pyridin-2-yl)acetamide] | > 7.00
Cn1c(=O)c2c(ncn2C(C)(C)C(=O)Nc2ccc(-c3ccsc3)cc2)n(C)c1=O [Compound 60, 2-(1,3-dimethyl-2,6-dioxo-2,3-dihydro-1H-purin-7(6H)-yl)-2-methyl-N-(4-(thiophen-3-yl)phenyl)propanamide] | > 6.00
Cn1c(=O)c2c(ncn2CC(=O)Nc2ccc(-n3ccnc3)cc2)n(C)c1=O [Compound 4, N-(4-(1H-imidazol-1-yl)phenyl)-2-(1,3-dimethyl-2,6-dioxo-2,3-dihydro-1H-purin-7(6H)-yl)acetamide] | > 6.00
Cn1c(=O)c2c(ncn2CC(=O)Nc2ccc(-c3ccccc3)s2)n(C)c1=O [Compound 2, 2-(1,3-dimethyl-2,6-dioxo-2,3-dihydro-1H-purin-7(6H)-yl)-N-(5-phenylthiophen-2-yl)acetamide] | > 7.00
Cc1nc(-c2ccc(NC(=O)[C@@H](C)n3cnc4c3c(=O)n(C)c(=O)n4C)nc2)cs1 [Compound 85, (R)-2-(1,3-dimethyl-2,6-dioxo-2,3-dihydro-1H-purin-7(6H)-yl)-N-(5-(2-methylthiazol-4-yl)pyridin-2-yl)propanamide] | > 5.30
Cn1c(=O)c2c(ncn2CC(=O)Nc2ccc(-c3nccs3)cn2)n(C)c1=O [Compound 41, 2-(1,3-dimethyl-2,6-dioxo-2,3-dihydro-1H-purin-7(6H)-yl)-N-(5-(thiazol-2-yl)pyridin-2-yl)acetamide] | > 7.00

SMILES | pIC50
Cn1c(=O)c2c(ncn2CC(=O)Nc2ccc(N3CCN(C(=O)OC(C)(C)C)CC3)cc2)n(C)c1=O [Compound 22, tert-butyl 4-(4-(2-(1,3-dimethyl-2,6-dioxo-2,3-dihydro-1H-purin-7(6H)-yl)acetamido)phenyl)piperazine-1-carboxylate] | > 7.00
Cn1c(=O)c2c(ncn2CC(=O)Nc2ccc(-c3ccc(F)cc3)nn2)n(C)c1=O [Compound 11, 2-(1,3-dimethyl-2,6-dioxo-2,3-dihydro-1H-purin-7(6H)-yl)-N-(6-(4-fluorophenyl)pyridazin-3-yl)acetamide] | > 7.00
C[C@@H](C(=O)Nc1ccc(-c2ccsc2)cc1)n1cnc2c1c(=O)n(C)c(=O)n2C [Compound 59, (S)-2-(1,3-dimethyl-2,6-dioxo-2,3-dihydro-1H-purin-7(6H)-yl)-N-(4-(thiophen-3-yl)phenyl)propanamide] | > 7.00
Cn1c(=O)c2c(ncn2CC(=O)Nc2ccc(N3CCN(C(=O)OC(C)(C)C)CC3)cn2)n(C)c1=O [Compound 20] | > 7.00
CC(C)C(C(=O)Nc1ccc(-c2ccccc2)cc1)n1cnc2c1c(=O)n(C)c(=O)n2C (stereo not shown) [Compound 65, N-(biphenyl-4-yl)-2-(1,3-dimethyl-2,6-dioxo-2,3-dihydro-1H-purin-7(6H)-yl)-3-methylbutanamide] | < 5.00
Cc1ccccc1-c1ccc(NC(=O)Cn2cnc3c2c(=O)n(C)c(=O)n3C)cc1 [Compound 28, 2-(1,3-dimethyl-2,6-dioxo-2,3-dihydro-1H-purin-7(6H)-yl)-N-(2′-methylbiphenyl-4-yl)acetamide] | < 5.00
Cc1nc(-c2ccc(NC(=O)Cn3cnc4c3c(=O)n(C)c(=O)n4C)cc2)cs1 [Compound 33, 2-(1,3-dimethyl-2,6-dioxo-2,3-dihydro-1H-purin-7(6H)-yl)-N-(4-(2-methylthiazol-4-yl)phenyl)acetamide] | > 7.00
Cn1c(=O)c2c(ncn2CC(=O)Nc2ccc(-c3nccs3)cc2)n(C)c1=O [Compound 34, 2-(1,3-dimethyl-2,6-dioxo-2,3-dihydro-1H-purin-7(6H)-yl)-N-(4-(thiazol-2-yl)phenyl)acetamide] | > 7.00
COc1cc(NC(=O)Cn2cnc3c2c(=O)n(C)c(=O)n3C)ccc1-c1ccccc1 [Compound 14, 2-(1,3-dimethyl-2,6-dioxo-2,3-dihydro-1H-purin-7(6H)-yl)-N-(2-methoxybiphenyl-4-yl)acetamide] | > 6.00
Cn1c(=O)c2c(nc(C(F)(F)F)n2CC(=O)Nc2ccc(-c3ccsc3)cc2)n(C)c1=O [Compound 70, 2-(1,3-dimethyl-2,6-dioxo-8-(trifluoromethyl)-2,3-dihydro-1H-purin-7(6H)-yl)-N-(4-(thiophen-3-yl)phenyl)acetamide] | > 7.00
C[C@H]1CNCCN1c1ccc(NC(=O)Cn2cnc3c2c(=O)n(C)c(=O)n3C)cc1 [Compound 43, (S)-2-(1,3-dimethyl-2,6-dioxo-2,3-dihydro-1H-purin-7(6H)-yl)-N-(4-(2-methylpiperazin-1-yl)phenyl)acetamide] | < 5.00
Cn1c(=O)c2c(ncn2CC(=O)Nc2ccc(N3CCNCC3)cn2)n(C)c1=O [Compound 42, 2-(1,3-dimethyl-2,6-dioxo-2,3-dihydro-1H-purin-7(6H)-yl)-N-(5-(piperazin-1-yl)pyridin-2-yl)acetamide] | < 5.00
Cc1nc(-c2ccc(NC(=O)CCn3cnc4c3c(=O)n(C)c(=O)n4C)cc2)cs1 [Compound 92, 3-(1,3-dimethyl-2,6-dioxo-1,2,3,6-tetrahydro-7H-purin-7-yl)-N-(4-(2-methylthiazol-4-yl)phenyl)propanamide] | > 6.00
Cn1c(=O)c2c(ncn2CC(=O)Nc2ccc(N3CCN(C(=O)c4ccc(Cl)cc4)CC3)cn2)n(C)c1=O [Compound 49, N-(5-(4-(4-chlorobenzoyl)piperazin-1-yl)pyridin-2-yl)-2-(1,3-dimethyl-2,6-dioxo-2,3-dihydro-1H-purin-7(6H)-yl)acetamide] | > 6.00
C[C@@H]1CN(C(=O)OC(C)(C)C)CCN1c1ccc(NC(=O)Cn2cnc3c2c(=O)n(C)c(=O)n3C)cc1 [Compound 16, (R)-tert-butyl 4-(4-(2-(1,3-dimethyl-2,6-dioxo-2,3-dihydro-1H-purin-7(6H)-yl)acetamido)phenyl)-3-methylpiperazine-1-carboxylate] | > 6.00
Cn1c(=O)c2c(ncn2CC(=O)Nc2ccc(-c3ncccn3)cc2)n(C)c1=O [Compound 8, 2-(1,3-dimethyl-2,6-dioxo-2,3-dihydro-1H-purin-7(6H)-yl)-N-(4-(pyrimidin-2-yl)phenyl)acetamide] | > 5.30
Cn1c(=O)c2c(ncn2CC(=O)Nc2ccc(-c3ccccn3)cn2)n(C)c1=O [Compound 9, N-(2,3′-bipyridin-6′-yl)-2-(1,3-dimethyl-2,6-dioxo-2,3-dihydro-1H-purin-7(6H)-yl)acetamide] | > 7.00
